Laboratory results from ChEMBL document CHEMBL1147807, “Identification of 2-acylaminothiophene-3-carboxamides as potent inhibitors of FLT3” (Bioorg Med Chem Lett, 2006).

These molecules were tested against T1, Receptor-type tyrosine-protein kinase FLT3 (Homo sapiens, UniProt P36888) (assay: Inhibition of FLT3).
T1 sequence (P36888 whole entry): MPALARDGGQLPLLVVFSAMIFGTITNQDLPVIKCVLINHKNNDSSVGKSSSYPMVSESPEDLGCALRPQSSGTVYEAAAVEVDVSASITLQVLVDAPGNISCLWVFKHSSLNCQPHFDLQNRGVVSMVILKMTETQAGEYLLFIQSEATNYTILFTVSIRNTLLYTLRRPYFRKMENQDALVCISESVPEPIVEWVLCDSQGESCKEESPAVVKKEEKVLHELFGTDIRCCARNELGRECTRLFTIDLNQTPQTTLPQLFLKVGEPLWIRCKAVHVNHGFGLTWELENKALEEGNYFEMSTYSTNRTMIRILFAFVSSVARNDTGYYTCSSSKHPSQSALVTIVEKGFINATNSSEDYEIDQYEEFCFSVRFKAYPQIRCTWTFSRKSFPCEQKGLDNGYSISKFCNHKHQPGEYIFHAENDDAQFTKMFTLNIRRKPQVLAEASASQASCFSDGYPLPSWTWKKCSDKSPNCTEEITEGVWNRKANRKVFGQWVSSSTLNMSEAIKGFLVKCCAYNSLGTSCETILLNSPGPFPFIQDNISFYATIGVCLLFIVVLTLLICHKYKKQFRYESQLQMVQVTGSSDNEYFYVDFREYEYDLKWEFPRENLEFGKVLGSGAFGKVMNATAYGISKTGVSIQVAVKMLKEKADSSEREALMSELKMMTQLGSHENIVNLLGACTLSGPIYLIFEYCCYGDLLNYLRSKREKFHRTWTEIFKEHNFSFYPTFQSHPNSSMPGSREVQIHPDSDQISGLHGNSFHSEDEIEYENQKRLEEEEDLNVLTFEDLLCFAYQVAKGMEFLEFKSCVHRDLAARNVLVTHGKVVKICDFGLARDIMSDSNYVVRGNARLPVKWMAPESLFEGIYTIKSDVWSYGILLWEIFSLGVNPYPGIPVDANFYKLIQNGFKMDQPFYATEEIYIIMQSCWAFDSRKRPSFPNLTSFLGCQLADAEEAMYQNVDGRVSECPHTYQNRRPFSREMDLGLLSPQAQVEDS

IC50 | SMILES
> 100000 nM | COc1ccc(C(=O)Nc2sc3c(c2C(N)=O)CCCCCC3)cc1OC
> 10000 nM | CC(C)C(=O)Nc1sc2c(c1C(N)=O)CCCC2
> 10000 nM | NC(=O)c1c(NC(=O)c2ccccc2Cl)sc2c1CCCC2
> 10000 nM | NC(=O)c1c(NC(=O)C2CCCCC2)sc2c1CCCC2
110 nM | NC(=O)c1c(NC(=O)c2ccncc2)sc2c1CCCC2
1300 nM | NC(=O)c1c(NC(=O)C2CC2)sc2c1CCCC2
2000 nM | CC(=O)Nc1sc2c(c1C(N)=O)CCCC2
> 10000 nM | NC(=O)c1c(NC(=O)COc2ccccc2)sc2c1CCCC2
> 10000 nM | NC(=O)c1c(NC(=O)c2ccc(Oc3ccccc3)cc2)sc2c1CCCC2
1100 nM | NC(=O)c1c(NC(=O)c2cccnc2)sc2c1CCCC2
> 10000 nM | COc1ccccc1C(=O)Nc1sc2c(c1C(N)=O)CCCC2
360 nM | NC(=O)c1c(NC(=O)c2ccccc2)sc2c1CCCC2
> 10000 nM | NC(=O)c1c(NC(=O)CSc2ccccc2)sc2c1CCCC2
> 10000 nM | NC(=O)c1c(NC(=O)c2ccc(-c3ccccc3)cc2)sc2c1CCCC2
> 10000 nM | COc1cc(C(=O)Nc2sc3c(c2C(N)=O)CCCC3)cc(OC)c1OC
250 nM | COc1ccc(/C=C/C(=O)Nc2sc3c(c2C(N)=O)CCCC3)cc1

The molecules below were run on MV4-11 (assay: Antiproliferative activity against human MV4-11 cells).

IC50 | SMILES
710 nM | Cc1ccc(C(=O)Nc2sc3c(c2C(N)=O)CCCC3)cc1C
410 nM | COc1ccc(C(=O)Nc2sc3c(c2C(N)=O)CCC3)cc1OC
1600 nM | CC(C)(C)c1ccc(C(=O)Nc2sc3c(c2C(N)=O)CCCC3)cc1
> 10000 nM | NC(=O)c1c(NC(=O)Cc2ccccc2)sc2c1CCCC2
350 nM | NC(=O)c1c(NC(=O)c2ccccn2)sc2c1CCCC2
330 nM | COc1ccc(C(=O)Nc2sc(C)c(C)c2C(N)=O)cc1OC
3200 nM | Cc1cccc(C(=O)Nc2sc3c(c2C(N)=O)CCCC3)c1
1500 nM | NC(=O)c1c(NC(=O)c2ccc(Br)cc2)sc2c1CCCC2
1400 nM | NC(=O)c1c(NC(=O)c2ccc(Cl)cc2)sc2c1CCCC2
2100 nM | NC(=O)c1c(NC(=O)c2ccncc2)sc2c1CCCC2
2000 nM | COc1ccc(/C=C/C(=O)Nc2sc3c(c2C(N)=O)CCCC3)cc1OC
1200 nM | NC(=O)c1c(NC(=O)C2CC2)sc2c1CCCC2
530 nM | NC(=O)c1c(NC(=O)/C=C/c2ccccc2)sc2c1CCCC2
1300 nM | COc1ccc(C(=O)Nc2sc3c(c2C(N)=O)CCCC3)cc1
480 nM | NC(=O)c1c(NC(=O)/C=C/c2ccco2)sc2c1CCCC2
450 nM | Cc1ccc(C(=O)Nc2sc3c(c2C(N)=O)CCCC3)cc1
1800 nM | CC(=O)c1ccc(C(=O)Nc2sc3c(c2C(N)=O)CCCC3)cc1
2400 nM | COc1ccc(C(=O)Nc2sccc2C(N)=O)cc1OC
2700 nM | CC(C)c1ccc(/C=C/C(=O)Nc2sc3c(c2C(N)=O)CCCC3)cc1
2000 nM | NC(=O)c1c(NC(=O)c2cccnc2)sc2c1CCCC2
1500 nM | COc1cccc(C(=O)Nc2sc3c(c2C(N)=O)CCCC3)c1
10000 nM | Cc1ccc(/C=C/C(=O)Nc2sc3c(c2C(N)=O)CCCC3)o1
> 10000 nM | NC(=O)c1c(NC(=O)c2ccccc2)sc2c1CCCC2
3800 nM | NC(=O)c1c(NC(=O)CSc2ccccc2)sc2c1CCCC2
2200 nM | NC(=O)c1c(NC(=O)c2cccc(Cl)c2)sc2c1CCCC2
> 10000 nM | COc1ccc(CCC(=O)Nc2sc3c(c2C(N)=O)CCCC3)cc1
1500 nM | NC(=O)c1c(NC(=O)c2ccco2)sc2c1CCCC2
1800 nM | COc1ccc(/C=C/C(=O)Nc2sc3c(c2C(N)=O)CCCC3)cc1
> 10000 nM | COc1cc(OC)cc(C(=O)Nc2sc3c(c2C(N)=O)CCCC3)c1
890 nM | NC(=O)c1c(NC(=O)c2ccc3c(c2)OCO3)sc2c1CCCC2
